From ChEMBL document CHEMBL1177789, “Inhibitors for expression of IgE receptor on human mast cell from Puerariae Flos” (Bioorg Med Chem Lett, 2010)
Calls of active or inactive are those of the source. The calls are words filed in the database; no cut-off is given here.

Key:
HMC1 [1] = assay: Antiallergic activity in human HMC1 cells assessed as inhibition of IgE […] receptor expression after 72 hrs by flow cytometry; assay type: functional, cell-based
[2] = Cytotoxicity against human HMC1 cells at 50 uM after 72 hrs; assay type: cell-based; conditions: hmc1, 72 h
HMC1 [3] = assay: Antiallergic activity in human HMC1 cells assessed as inhibition of IgE […] receptor mRNA expression after 72 hrs by RT-PCR; assay type: functional, cell-based

SMILES	inhibition (HMC1 [1])	Activity [2]	inhibition (HMC1 [3])
COc1cc2occ(-c3ccc(O)cc3)c(=O)c2cc1OC	Active	Non-toxic	–
COc1c(O)cc2occ(-c3ccc(O)cc3)c(=O)c2c1O	–	–	Active
